Patent EP0393104B1, “MEASUREMENT OF PGE 2 (PROSTAGLANDIN E 2) LEVELS IN PATIENTS WITH CHRONIC INFLAMMATORY BOWEL DISEASE” (priority 1987, dated 1989)

Experiments:
[1] = HPLC of ADS, 5-ASA and Ac-5-ASA in faecal dialysates (equilibrium in vivo dialysis of faeces); parameters: species or system patients; details: for concentration: ulcerative colitis, read-out: Concentrations in faecal dialysates
Method: (§1) Before entry, at the two week's visit, and at the six and 12 months' visits equilibrium in vivo dialysis of faeces as well as equilibrium in vivo dialysis of rectum were done prior to endoscopy of rectum and sigmoid colon with biopsies. ADS was administered in gelatin capsules, each containing 250 mg of the powdered drug without additives.
(§2) Equilibrium in vivo dialysis of faeces was done as previously described in detail by pooling the contents of five swallowed dialysis bags following their intestinal transit (faecal dialysate).
(§3) The lower detection limits in serum and in faecal dialysates were 1.0 umol/I and 6.0 umol/l, respectively. Prostaglandin E2 was measured by the radioimmunologic method, referred to above, validated by gas chromatography-mass spectrometry. These measurements were done blindly and independently of the assessment of disease activity and clinicians were unaware of the results until the data had been completed.

[2] = system: ulcerative colitis and Crohn's colitis; experiment: Open one-year dose-escalation study of ADS: efficacy, tolerance and safety; assay type: in vivo, patients; details: for patients who experienced a relapse: remaining UC patients
Text: Patients fulfilling the following entry criteria were candidates for the study: (a) proven UC or proven CC; (b) relapsing disease (i.e., a relapse within the past six months) or chronic continous disease activity (i.e. absence of remission (definition: see below) for three months or more); (c) refractory to SAZ (i.e., relapsing disease despite maintenance treatment with SAZ 2 g/day or chronic continous disease despite treatment with glucocorticoids and SAZ) or intolerant of SAZ (i.e., allergic to or otherwise intolerant of SAZ).
The study design was open with an initial dose of ADS 1 g/day (0.5 g b.i.d.), in SAZ intolerant patients. In SAZ refractory patients the initial dose was 2 g/day (1 g b.i.d.). […] In patients on concomitant corticosteroids the dose was gradually tapered and, if possible, the administration was stopped.
(§4) Aone year treatment period was planned including scheduled visits at two weeks and at two, four, six, eight, ten, and 12 months, in addition to in-between visits, if needed. Before entry and at each visit the clinical disease activity was assessed (see below) and a laboratory screening was done. This included blood haemoglobin, reticulocyte count, erythrocyte sedimentation rate, leucocyte count, leucocyte differential count, platelet count, serum concentrations of Na, K, Ca, albumin, creatinine, urea, alanine aminotransferase, lactate dehydrogenase, alkaline phosphatase, bilirubin, and plasma prothrombin, in addition to urine analysis for protein and glucose and microscopy for erythrocytes, leukocytes, and casts.
The clinical activity was based on a diary and the objective findings registered by the investigator. To minimize variation among observers each patient was examined on all study days by the same investigator. All days the week preceeding a scheduled visit the patient recorded the number of bowel movements in the diary, in addition to the presence or absence of blood, and graded abdominal pain and general well-being according to W. R. Best, J. M. Becktel, J. W. Singleton, 'Rederived values of the eight coefficients of the Crohn's Disease Activity Index (CDAI)', 1979 Gastroenterology, 77:843-6) for calculation of the Crohn's disease activity index (CDAI). […] Remission in patients with CC was defined as a CDAI <150 and no evidence of inflammation on sigmoidoscopy. […] Due to the open design of the study no further clinical or endoscopic estimations of efficacy were done.

[3] = HPLC of ADS, 5-ASA and Ac-5-ASA in serum; assay type: in vivo, patients; details: ulcerative colitis, read-out: Concentrations in serum
Method: as §4, §3

PGE2 [4] = experiment: Equilibrium in vivo dialysis of faeces with radioimmunoassay of PGE2 (ADS study); parameters: species or system patients; details: mean±SD
Method: as §1, §2, §3

ulcerative colitis = details: human, in vivo, po; cited from earlier work
PGE2 [5] = experiment: Equilibrium in vivo dialysis of rectum with radioimmunoassay of PGE2 (ADS study); parameters: species or system patients; details: mean±SD
Method: as §1
Equilibrium in vivo dialysis of rectum was performed after insertion of a 12-cm-long dialysis bag into the emptied rectum as previously described (K. Lauritsen, L.S. Laursen, K. Bukhave, J. Rask-Madsen, "Effects of topical 5-aminosalicylic acid and prednisolone on prostaglandin E2 and leukotriene B4 levels determined by equilibrium in vivo dialysis of rectum in relapsing ulcerative colitis, Gastroenterology 1986;91:837-844). The bag was left for four hours and its contents (rectal dialysate) were analyzed for concentrations of PGE2 (rectal PGEZ).
as §3

O=C(O)c1cc(N=Nc2ccc(O)c(C(=O)O)c2)ccc1O [Olsalazine, disodium-azodisalicylate]
concentration ([1]; Olsalazine dose/day 1 g (n=7), mean±SD of averages in each patient): 100 ± 140 µM | concentration ([1]; Olsalazine dose/day 2 g (n=20), mean±SD): 340 ± 480 µM | concentration ([1]; Olsalazine dose/day 3 g (n=14), mean±SD): 400 ± 580 µM | concentration ([1]; Olsalazine dose/day 4 g (n=18), mean±SD): 270 ± 410 µM | patients in whom the split ratio was below 90%, at least on one occasion ([1]; of all patients): 28% | withdrawals due to drug intolerance ([2]; 40 patients, ADS 1-4 g/day up to one year): No patients were withdrawn due to drug intolerance | treatment failures ([2]; UC patients intolerant of SAZ): one of eight | treatment failures ([2]; UC patients refractory to SAZ, of 23): 12 | slightly increased levels of alanine aminotransferase or alkaline phosphatase ([2]; in vivo): six cases | treatment failures (CDAI <150 without sigmoidoscopic evidence of inflammation never obtained) ([2]; patients with CC): Five of the nine | treatment failures (clinical and sigmoidoscopic remission never obtained) ([2]; patients with UC (n=31)): Thirteen patients | patients who experienced a relapse ([2]; on 1 g/day): four | patients who experienced a relapse ([2]; on 2 g/day): two | patients who experienced a relapse ([2]; on 3 g/day): eight | patients who experienced a relapse ([2]; on 4 g/day): two | concentration ([3]; Olsalazine dose/day 1 g (n=9), mean±SD of average in each patient): 9.2 ± 3.4 µM | concentration ([3]; Olsalazine dose/day 2 g (n=14), mean±SD): 16 ± 6.8 µM | concentration ([3]; Olsalazine dose/day 3 g (n=20), mean±SD): 22 ± 8.1 µM | concentration ([3]; Olsalazine dose/day 4 g (n=20), mean±SD): 25 ± 11 µM | Fecal PGE2 levels (PGE2 [4]; Crohn's colitis (n=9), Month 6, Entry 1.76±1.94): 0.70±0.68 (0.08-1.81) ng/ml | Fecal PGE2 levels (PGE2 [4]; Crohn's colitis (n=9), Month 12, Entry 1.76±1.94): 1.23±2.06 (0.04-5.39) ng/ml | Fecal PGE2 levels (PGE2 [4]; Ulcerative colitis, SAZ intolerant, n=8, Month 6, Entry 1.09±1.18): 0.48±0.85 (0.04-2.55) ng/ml | Fecal PGE2 levels (PGE2 [4]; Ulcerative colitis, SAZ intolerant, n=8, Month 12, Entry 1.09±1.18, p<0.05): 0.16±0.05 (0.08-0.22) ng/ml | Fecal PGE2 levels (PGE2 [4]; Ulcerative colitis, SAZ refractory, n=23, Month 6, Entry 1.65±1.80, normal range <0.5, p<0.05): 0.44±1.03 (0.05-4.72) ng/ml | Fecal PGE2 levels (PGE2 [4]; Ulcerative colitis, SAZ refractory, n=23, Month 12, Entry 1.65±1.80, p<0.05): 0.77±1.09 (0.06-3.73) ng/ml | loose or watery stools (major adverse effect) (ulcerative colitis): 10% | Rectal PGE2 levels (PGE2 [5]; Crohn's colitis (n=9), Month 6, Entry 4.0±5.1): 5.0±4.8 (0.4-13.0) ng/ml | Rectal PGE2 levels (PGE2 [5]; Crohn's colitis (n=9), Month 12, Entry 4.0±5.1): 3.0±5.7 (0.1-14.6) ng/ml | Rectal PGE2 levels (PGE2 [5]; Ulcerative colitis, SAZ intolerant, n=8, Month 6, Entry 8.5±15.0): 5.7±11.9 (0.15-32.6) ng/ml | Rectal PGE2 levels (PGE2 [5]; Ulcerative colitis, SAZ intolerant, n=8, Month 12, Entry 8.5±15.0): 1.6±2.0 (0.32-5.3) ng/ml | Rectal PGE2 levels (PGE2 [5]; Ulcerative colitis, SAZ refractory, n=23, Month 6, Entry 16.0±15.3, normal range <0.6, p<0.05): 8.1±12.3 (0.05-42.8) ng/ml | Rectal PGE2 levels (PGE2 [5]; Ulcerative colitis, SAZ refractory, n=23, Month 12, Entry 16.0±15.3): 13.6±15.4 (0.12-49.0) ng/ml
